Measurements from ChEMBL document CHEMBL5512599, “Synthetic non-toxic anti-biofilm agents as a strategy in combating bacterial resistance” (Eur J Med Chem, 2023).
Converted amounts (≈) assume the structure as drawn.

Columns and labels:
Pseudomonas aeruginosa [1] = experiment: Antimicrobial activity against Pseudomonas aeruginosa ATCC 9027 assessed as reduction in microbial growth by serial dilution method; type: functional, organism-based
Pseudomonas aeruginosa [2] = experiment: Antibacterial activity against Pseudomonas aeruginosa 27853 assessed as inhibition of bacterial growth at 32 microg/ml incubated for 24 hrs in presence of Ciprofloxacin by absorbance based microplate reader analysis relative to control; type: functional; set-up: scale not given: the % may be the effect or the level left; conditions: dose 32 µg/ml
Pseudomonas aeruginosa [3] = experiment: Antibacterial activity against Pseudomonas aeruginosa 27853 assessed as inhibition of bacterial growth at 32 microg/ml incubated for 24 hrs in presence of Clarithromycin by absorbance based microplate reader analysis relative to control; type: functional; set-up: scale not given: the % may be the effect or the level left; conditions: dose 32 µg/ml
[4] = Inhibition of quorum sensing system in Pseudomonas aeruginosa PAO1 assessed as inhibition of pyocyanin production at 256 ug/ml incubated for 24 hrs by absorbance based assay; conditions: dose 256.0 µg/ml
Pseudomonas aeruginosa [5] = experiment: Antibiofilm activity against Pseudomonas aeruginosa PAO1 assessed as inhibition of biofilm formation at 64 microg/ml incubated for 24 hrs by BacTiter Glo reagent based luminescence analysis relative to control; type: functional; set-up: scale not given: the % may be the effect or the level left; conditions: dose 64 µg/ml
Pseudomonas aeruginosa [6] = experiment: Antibiofilm activity against Pseudomonas aeruginosa ATCC 27853 assessed as reduction in biofilm formation at 1/6 times of MIC after 24 hrs by crystal violet staining based assay; type: functional; set-up: scale not given: the % may be the effect or the level left
Pseudomonas aeruginosa [7] = experiment: Antibiofilm activity against Pseudomonas aeruginosa PAO1 assessed as inhibition of biofilm formation incubated at 50 uM incubated for 24 hrs by crystal violet staining based analysis relative to control; type: functional; set-up: scale not given: the % may be the effect or the level left
Pseudomonas aeruginosa [8] = experiment: Antibiofilm activity against wild type Pseudomonas aeruginosa PAO1 assessed as inhibition of biofilm formation at 100 uM incubated for 24 hrs by crystal violet staining based analysis relative to control; type: functional; set-up: scale not given: the % may be the effect or the level left
Pseudomonas aeruginosa [9] = experiment: Antibiofilm activity against Pseudomonas aeruginosa assessed as reduction in biofilm formation incubated for 24 hrs by microscopic analysis; type: functional, organism-based
Staphylococcus aureus [10] = experiment: Antibiofilm activity against Staphylococcus aureus BAA 1708 at 3.1 ug/ml measured after 24 hrs by crystal violet staining based analysis relative to control; type: functional; conditions: dose 3.1 µg/ml
Staphylococcus aureus [11] = experiment: Antibiofilm activity against Staphylococcus aureus ATCC 29213 at 3.1 ug/ml measured after 24 hrs by crystal violet staining based analysis relative to control; type: functional; conditions: dose 3.1 µg/ml
Staphylococcus aureus [12] = experiment: Antibiofilm activity against Staphylococcus aureus ATCC 25923 at 3.1 ug/ml measured after 24 hrs by crystal violet staining based analysis relative to control; type: functional; conditions: dose 3.1 µg/ml
Staphylococcus aureus [13] = experiment: Antibiofilm activity against Staphylococcus aureus ATCC 6538 assessed as inhibition of biofilm formation incubated for 24 hrs by crystal violet staining based analysis; type: functional, organism-based; conditions: ATCC 6538, 24 h
Pseudomonas aeruginosa [14] = experiment: Antibacterial activity against Pseudomonas aeruginosa 27853 assessed as inhibition of bacterial growth at 3.2 microg/ml incubated for 24 hrs by absorbance based microplate reader analysis relative to control; type: functional; set-up: scale not given: the % may be the effect or the level left; conditions: dose 3.2 µg/ml
[15] = biological target: T1, Transcriptional regulator MvfR (Pseudomonas aeruginosa PA14, UniProt A0A072ZLE6); experiment: Antagonist activity at PqsR in wild-type Pseudomonas aeruginosa PAO1 assessed as reduction in AQ level at 0.2 uM by LCMS/MS analysis
T1 sequence (A0A072ZLE6 whole entry): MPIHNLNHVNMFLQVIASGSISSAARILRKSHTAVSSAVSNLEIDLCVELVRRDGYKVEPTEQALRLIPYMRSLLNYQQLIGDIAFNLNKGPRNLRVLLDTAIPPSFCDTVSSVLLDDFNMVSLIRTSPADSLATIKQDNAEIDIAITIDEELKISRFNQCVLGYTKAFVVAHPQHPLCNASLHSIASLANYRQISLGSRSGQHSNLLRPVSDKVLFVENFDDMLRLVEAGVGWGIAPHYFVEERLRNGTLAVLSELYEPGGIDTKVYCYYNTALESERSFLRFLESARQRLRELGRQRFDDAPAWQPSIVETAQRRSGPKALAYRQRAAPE

[16] = biological target: T1, Transcriptional regulator MvfR; experiment: Antagonist activity at PqsR in wild-type Pseudomonas aeruginosa PA14 assessed as reduction in AQ level at 0.2 uM by LCMS/MS analysis
Staphylococcus aureus [17] = experiment: Inhibition of Staphylococcus aureus Sortase A at 100 uM relative to control
Staphylococcus aureus [18] = experiment: Antibiofilm activity against Staphylococcus aureus ATCC 25923 assessed as inhibition of biofilm formation; type: functional, organism-based
Micrococcus luteus = experiment: Antibacterial activity against Micrococcus luteus MTCC 2470 assessed as inhibition of bacterial growth incubated for 24 hrs by agar well diffusion method; type: functional
Staphylococcus aureus [19] = experiment: Antibacterial activity against Staphylococcus aureus MTCC 96 assessed as reduction in microbial growth after 24 hrs by CLSI based microdilution method; type: functional
Staphylococcus aureus [20] = experiment: Antibacterial activity against Staphylococcus aureus MLS16 MTCC 2940 assessed as bacterial growth inhibition measured after 24 hrs by microdilution assay; type: functional
[21] = Inhibition of quorum sensing system in Pseudomonas aeruginosa PAO1 assessed as inhibition of pyocyanin production at 12.5 uM incubated for 24 hrs by absorbance based assay relative to control
Pseudomonas aeruginosa [22] = experiment: Antibiofilm activity against Pseudomonas aeruginosa PAO1 assessed as reduction in biofilm formation at 50 uM relative to control; type: functional; set-up: scale not given: the % may be the effect or the level left
Pseudomonas aeruginosa [23] = experiment: Antibiofilm activity against Pseudomonas aeruginosa PAO1 assessed as reduction in biofilm formation at 12.5 uM relative to control; type: functional; set-up: scale not given: the % may be the effect or the level left
Pseudomonas aeruginosa [24] = experiment: Antibiofilm activity against Pseudomonas aeruginosa PAO1 assessed as reduction in biofilm formation at 25 uM relative to control; type: functional; set-up: scale not given: the % may be the effect or the level left
Staphylococcus aureus [25] = experiment: Antibacterial activity against Staphylococcus aureus ATCC 25923 assessed as bacterial growth inhibition measured after 18 hrs by CLSI protocol based two-fold serial microdilution method; type: functional, organism-based; conditions: ATCC 25923, 18 h
Acinetobacter baumannii [26] = experiment: Antibacterial activity against Acinetobacter baumannii ATCC 19606 assessed as growth inhibition incubated for 18 hrs by resazurin dye based assay; type: functional, organism-based; conditions: ATCC 19606, 18 h
Pseudomonas aeruginosa [27] = experiment: Antibiofilm activity against Pseudomonas aeruginosa PAO1 assessed as inhibition of biofilm formation incubated for 8 hrs by crystal violet based; type: functional, organism-based; conditions: PAO1, 8 h
Pseudomonas aeruginosa [28] = experiment: Anti-motility activity against Pseudomonas aeruginosa PAO1 assessed as reduction in swarming at 50 ug/ml incubated for 16 hrs by crystal violet staining analysis; type: functional; set-up: scale not given: the % may be the effect or the level left; conditions: dose 50 µg/ml
Pseudomonas aeruginosa [29] = experiment: Anti-motility activity against Pseudomonas aeruginosa PAO1 assessed as reduction in swarming at 100 ug/ml incubated for 16 hrs by crystal violet staining analysis; type: functional; set-up: scale not given: the % may be the effect or the level left; conditions: dose 100 µg/ml
Acinetobacter baumannii [30] = experiment: Antibiofilm activity against Acinetobacter baumannii ATCC 19606 assessed as inhibition of biofilm formation at 66.5 ug/ml by crystal violet assay; type: functional; set-up: scale not given: the % may be the effect or the level left; conditions: dose 66.5 µg/ml
Streptococcus mutans = experiment: Antibiofilm activity against Streptococcus mutans ATCC 25175 assessed as inhibition of biofilm formation incubated for 24 hrs by crystal violet staining based analysis; type: functional, organism-based; conditions: ATCC 25175, 24 h
Pseudomonas aeruginosa [31] = experiment: Antibiofilm activity against Pseudomonas aeruginosa PAO1 assessed as inhibition of biofilm formation at 100 microg/ml relative to control; type: functional; set-up: scale not given: the % may be the effect or the level left; conditions: dose 100 µg/ml
Staphylococcus aureus [32] = experiment: Antimicrobial activity against methicillin-resistant Staphylococcus aureus ATCC 43866 assessed as reduction in microbial growth incubated for 24 hrs by broth microdilution method; type: functional, organism-based; conditions: ATCC 43866, 24 h
Staphylococcus aureus [33] = experiment: Antimicrobial activity against methicillin-sensitive Staphylococcus aureus ATCC 35556 assessed as reduction in microbial growth incubated for 24 hrs by broth microdilution method; type: functional, organism-based; conditions: ATCC 35556, 24 h
Pseudomonas aeruginosa [34] = experiment: Antimicrobial activity against Pseudomonas aeruginosa PAO1 assessed as inhibition of microbial growth by microdilution broth method; type: functional
Pseudomonas aeruginosa [35] = experiment: Antibiofilm activity against Pseudomonas aeruginosa PAO1 assessed as inhibition of biofilm formation at 10 microg/ml relative to control; type: functional; set-up: scale not given: the % may be the effect or the level left; conditions: dose 10 µg/ml
Pseudomonas aeruginosa [36] = experiment: Antibiofilm activity against Pseudomonas aeruginosa PAO1 assessed as reduction in biofilm formation at 100 uM incubated for 24 hrs by crystal violet staining based analysis relative to control; type: functional; set-up: scale not given: the % may be the effect or the level left
[37] = Inhibition of quorum sensing system in Pseudomonas aeruginosa PA14 assessed as inhibition of pyocyanin production
Pseudomonas aeruginosa [38] = experiment: Antibiofilm activity against Pseudomonas aeruginosa PAO1 assessed as inhibition of biofilm formation incubated for 24 hrs by crystal violet staining based assay; type: functional, organism-based; conditions: PAO1, 24 h
Staphylococcus aureus [39] = experiment: Antibiofilm activity against methicillin-resistant Staphylococcus aureus assessed as inhibition of biofilm formation incubated for 8 hrs by crystal violet staining based analysis; type: functional, organism-based
Staphylococcus aureus [40] = experiment: Antibacterial activity against Staphylococcus aureus assessed as bacterial growth inhibition; type: functional, organism-based
Enterococcus faecium = experiment: Antibacterial activity against Vancomycin-resistant Enterococcus faecium ATCC 51559 assessed as reduction in bacterial growth incubated for 18 hrs by spectrophotometry based analysis; type: functional, organism-based; conditions: ATCC 51559, 18 h

O=C1C=C(c2ccc(F)cc2)/C(=C/Sc2ccccn2)N1
IC50 (Pseudomonas aeruginosa [1]): 32 µM

COc1ccc(OCCCCCCCC(=O)NNC(=O)Cn2c(=O)oc3ncccc32)cc1
Activity (Pseudomonas aeruginosa [2]): 48.27%
Activity (Pseudomonas aeruginosa [3]): 49.79%
inhibition [4]: 53%
Activity (Pseudomonas aeruginosa [5]): 40%

COc1ccc(CC(=O)OC2OC(=O)C(Br)=C2Br)cc1OC (centres undefined)
Activity (Pseudomonas aeruginosa [6]): 63%

O=C(CCCCCCCCCN=C=S)CC(=O)N[C@H]1CCOC1=O
Activity (Pseudomonas aeruginosa [7]): 50%

Nc1nc2ccc(/C=C/c3ccccc3)cc2[nH]1
Activity (Pseudomonas aeruginosa [8]): 56%

Nc1nc2ccccc2[nH]1
IC50 (Pseudomonas aeruginosa [9]): 47 µM

COc1ccc(CC(=O)[N-]c2c([N+]#N)c(C)nn2C)cc1
Activity (Staphylococcus aureus [10]): 25%
Activity (Staphylococcus aureus [11]): 45.7%
Activity (Staphylococcus aureus [12]): 38%

CCOC(=O)c1nn(-c2ccc(Cl)cc2)cc1C(=O)c1cc2cc(CN3CCN(Cc4ccc5oc(C(=O)c6cn(-c7ccc(Cl)cc7)nc6C(=O)OCC)cc5c4)CC3)ccc2o1
IC50 (Staphylococcus aureus [13]): 4.2 µM

CC[C@H]1OC(=O)[C@H](C)[C@@H](O[C@H]2C[C@@](C)(OC)[C@@H](O)[C@H](C)O2)[C@H](C)[C@@H](O[C@@H]2O[C@H](C)C[C@H](N(C)C)[C@H]2O)[C@](C)(OC)C[C@@H](C)C(=O)[C@H](C)[C@@H](O)[C@]1(C)O [CLARITHROMYCIN]
Activity (Pseudomonas aeruginosa [14]): 29.11%

O=CN1N=C(c2ccccc2)CC1c1cccc(Nc2ccnc3cc(Cl)ccc23)c1 (centres undefined)
IC50 [15]: 12.4 µM
IC50 [16]: 2.3 µM

CC(C)(C)OC(=O)NCCn1cc(-c2nc(-c3c[nH]c4ncccc34)cs2)c2ccccc21
inhibition (Staphylococcus aureus [17]): 47.8%
IC50 (Staphylococcus aureus [18]): 12 µM

CCCCCCCCc1ccc(C(F)(F)F)nc1OCc1cn(C#N)nn1
MIC (Micrococcus luteus): 18.8 µM (≈ 7.15 µg/mL)
MIC (Staphylococcus aureus [19]): 9.37 µM
MIC (Staphylococcus aureus [20]): 9.37 µM (≈ 3.57 µg/mL)

CCCCCCSSc1nc2ccccc2c(=O)[nH]1
inhibition [21]: 94%
Activity (Pseudomonas aeruginosa [22]): 46%
Activity (Pseudomonas aeruginosa [23]): 38%
Activity (Pseudomonas aeruginosa [24]): 43%

C/C(=C\c1ccccc1)Cn1cc(CCCCCc2c[nH]c(N)n2)nn1
IC50 (Staphylococcus aureus [25]): 0.81 µM
IC50 (Acinetobacter baumannii [26]): 0.98 µM

Cc1ccc(NC(=O)Cn2c(N)nc(Cc3ccc(C(C)(C)C)cc3)c2-c2ccccc2Br)cc1
IC50 (Pseudomonas aeruginosa [27]): 100 µM

O=C(/C=C/c1ccc(C(F)(F)F)cc1)c1ccccc1O
Activity (Pseudomonas aeruginosa [28]): 21.91%
Activity (Pseudomonas aeruginosa [29]): 31.74%
Activity (Acinetobacter baumannii [30]): 56.8%

CCOC(=O)c1nn(-c2ccc([N+](=O)[O-])cc2)cc1C(=O)c1cc2cc(CN3CCN(Cc4ccc5oc(C(=O)c6cn(-c7ccc([N+](=O)[O-])cc7)nc6C(=O)OCC)cc5c4)CC3)ccc2o1
IC50 (Streptococcus mutans): 5.8 µM

COc1ccccc1/C=C/C(=O)c1ccccc1O
Activity (Pseudomonas aeruginosa [31]): 57%

Cn1c(C(=O)N/N=C/c2ccc(Oc3c(Cl)cccc3Cl)cc2)cc(Br)c1Br
IC50 (Staphylococcus aureus [32]): 0.78 µg/mL
IC50 (Staphylococcus aureus [33]): 0.39 µg/mL

O=C(/C=C/c1ccc(O)c(O)c1)OCCc1ccc(Br)cc1
MIC (Pseudomonas aeruginosa [34]): > 512 µM
Activity (Pseudomonas aeruginosa [35]): 33.69%

O=C(CCCOc1cccc(Br)c1)NC1CCSC1=O (centres undefined)
Activity (Pseudomonas aeruginosa [36]): 62%
IC50 [37]: 8 µM

Cc1cccc(/C=C2/C(c3cccc(C)c3)=CC(=O)N2Cc2ccccc2)c1
IC50 (Pseudomonas aeruginosa [38]): 0.26 µM
IC50 [37]: 0.28 µM

Nc1nc2cc(NC(=O)c3c(Cl)c(Cl)c(Cl)c(Cl)c3C(=O)O)ccc2[nH]1
IC50 (Staphylococcus aureus [39]): 1.5 µM
EC50 (Staphylococcus aureus [40]): < 8 µM
EC50 (Enterococcus faecium): 75 µM
